The text below walks through data of patent publication US20200010910A1, “Cytotoxic Chemotherapy-Based Predictive Assays for Acute Myeloid Leukemia” (The Regents of The University of California, priority 2017, published 2020).

Data set [1] relates to 5637R. As to the kind of experiment: MTT assay IC50, oxaliplatin-resistant bladder cancer sub-line. The class given is cell-based, human. As to conditions: 5637R, 72 hours. Here is the method:
Drug-DNA adduct formation and repair was measured by accelerator mass spectrometry.
To confirm that 5637 was the original ATCC cell line, and that 5637R originated from the parental 5637 cell line, both cultures were sent to the ATCC Cell Line Authentication Service for cell verification per the ATCC protocol. More specifically, fifteen short tandem repeat (STR) loci plus the gender determining locus, amelogenin, were amplified using the commercially available PowerPlex® 16HS Kit from Promega.
These two cell lines were also cultured with a range of concentrations of cisplatin, carboplatin, gemcitabine, doxorubicin, methotrexate and vinblastine for 72 hours to determine IC50 for these other drugs (FIG. 16C). These drugs were chosen because of their frequent use in the treatment of bladder cancer.

Data set [2] concerns HCC827. Description: MTT assay IC50. The class given is cell-based, human. Here is the method:
(§1) Six non-small cell lung cancer (NSCLC) cell lines were treated in culture with [^14C]carboplatin. Carboplatin-DNA monoadduct levels over time were determined by measuring ^14C content in genomic DNA with accelerator mass spectrometry (AMS). Cellular sensitivity to carboplatin and cisplatin was analyzed by the MTT assay (Henderson et al., International Journal of Cancer 2011).
(§2) Human NSCLC cell lines H23, H460, H727, HCC827, H1975, and A549 were purchased from ATCC and were cultured with the recommended medium. The MTT assay was performed as previously reported to determine the drug concentration required to inhibit cell growth by 50% (IC50) of cisplatin and carboplatin. [^14C]Carboplatin (at 53 mCi/mmol) was mixed with unlabeled carboplatin to achieve the specific activities required for microdoses and therapeutic doses. Table 1 lists the six NSCLC cell lines and summarizes their IC50 characteristics, induced carboplatin-DNA monoadducts when treated with [^14C]carboplatin, and p and r^2 values for correlation analysis to the IC50 concentrations.

Data set [3] relates to H727. Description: MTT assay IC50. The class given is cell-based, human. On the procedure: as §1, §2
For data set [4], the system named is H1975. As to the kind of experiment: MTT assay IC50. The class given is cell-based, human. Here is the method: as §1, §2
For orientation: Tetrazolium dyes change colour on reduction, which living cells bring about.

The subject of data set [5] is H460. Description: MTT assay IC50. It counts as cell-based, human. Here is the method:
as §1, §2

Data set [6] deals with H23. As to the kind of experiment: MTT assay IC50. It counts as cell-based, human. On the procedure:
as §1, §2

The test system of data set [7] is PDX Model BL0293. As to the kind of experiment: PDX tumor growth under chemotherapy. It counts as in vivo, NSG mice. As to conditions: cisplatin 2 mg/kg IV Q7Dx3, gemcitabine 150 mg/kg IP Q7Dx4. On the procedure: (§3) Female NSG mice (5-8 weeks of age, body weight: 20 to 25 g) were obtained from Jackson Laboratories (CA, USA). […] To establish multiple PDXs to allow efficacy studies with multiple drugs, PDXs from passage 2-4 were minced into 1 mm^3 sections and injected subcutaneously into multiple mice. […] G/C combination chemotherapy consisted of the simultaneous administration of both drugs using the schema described above. Tumor growth was assessed by measuring palpable tumors with a caliper and calculating tumor volume. […] DNA was isolated using a modified Wizard procedure (Promega), quantitated by spectrophotometry, and then stored frozen at −20° C. until AMS analysis. […] Primary tumor tissue from four bladder cancer patients were implanted in NSG mice to create the PDX models described in Table 5. […] Of the four distinct tumors tested in the PDX model, three were resistance to cisplatin (BL0269, BL0293, BL0645) and two were resistance to gemcitabine (BL0269, BL0645) as single agent therapies.

Data set [8] concerns PDX Model BL0269. As to the kind of experiment: PDX tumor growth under chemotherapy. The class given is in vivo, NSG mice. Conditions: cisplatin 2 mg/kg IV Q7Dx3, gemcitabine 150 mg/kg IP Q7Dx4. Here is the method:
as §3

The test system of data set [9] is PDX Model BL0645. Description: PDX tumor growth under chemotherapy. It counts as in vivo, NSG mice. As to conditions: cisplatin 2 mg/kg IV Q7Dx3, gemcitabine 150 mg/kg IP Q7Dx4. Here is the method:
as §3

In data set [10] the test system is PDX Model BL0440. As to the kind of experiment: PDX tumor growth under chemotherapy. It counts as in vivo, NSG mice. Conditions: cisplatin 2 mg/kg IV Q7Dx3, gemcitabine 150 mg/kg IP Q7Dx4. On the procedure: as §3
The test system of data set [11] is RT4. Description: MTT assay IC50, bladder cancer cell line. The class given is cell-based. From the text: (§4) If these diadducts are the predominant DNA lesion responsible for cell death, then the IC50 of the two drugs should be linearly related. Thus, we measured the IC50 of the six NSCLC cell lines from Example 2 to both cisplatin and carboplatin to determine if the sensitivity of these six NSCLC cell lines to the two drugs are correlated. We observed a statistically significant linear correlation of the cytotoxicity of these two drugs in the 6 cell lines used in this study (R^2=0.72, p=0.033, FIG. 9A) and also to six additional ATCC bladder cancer cell lines. (R^2=0.72, p=0.033), FIG. 9B).

Data set [12] relates to TCCSUP. Description: MTT assay IC50, bladder cancer cell line. It counts as cell-based.
Text: as §4

The test system of data set [13] is T24. Description: MTT assay IC50, bladder cancer cell line. The class given is cell-based.
Text: as §4

In data set [14] the test system is J82. Description: MTT assay IC50, bladder cancer cell line. It counts as cell-based.
Text: as §4

The subject of data set [15] is HT1197. Description: MTT assay IC50, bladder cancer cell line. It counts as cell-based.
Text: as §4

Data set [16] deals with PDX Model BL0269. Description: drug-DNA adducts in PDX tumor by AMS. The class given is in vivo, NSG mice. The text has this: (§5) Female NSG mice (5-8 weeks of age, body weight: 20 to 25 g) were obtained from Jackson Laboratories (CA, USA). All animals were kept under pathogen-free conditions and were allowed to acclimatize for at least 4 days prior to any experiments. PDX models bearing the indicated patient derived xenografts were created by subcutaneous injection at the flank of 1 mm^3 tumor tissue. To establish multiple PDXs to allow efficacy studies with multiple drugs, PDXs from passage 2-4 were minced into 1 mm^3 sections and injected subcutaneously into multiple mice. At least 3 mice were used for each treatment group. Tumors were allowed to grow to at about 100 mm^3 before being assessed for drug sensitivity or the induction of DNA adducts by the administration of a microdose or a therapeutic dose of labeled drug. To assess tumor response to chemotherapy, cisplatin was administered at 2 mg/kg IV every 7 days for a total of 3 cycles, or gemcitabine was administered at 150 mg/kg IP every 7 days for a total of 4 cycles. G/C combination chemotherapy consisted of the simultaneous administration of both drugs using the schema described above. Tumor growth was assessed by measuring palpable tumors with a caliper and calculating tumor volume. Drug-DNA adduct frequencies were measured in tumor tissue collected 24 hours after intravenous injection of labeled drug and stored at −80° C. until DNA isolation. DNA was isolated using a modified Wizard procedure (Promega), quantitated by spectrophotometry, and then stored frozen at −20° C. until AMS analysis. Ten micrograms of DNA per sample was converted to graphite and measured by AMS for 14C quantification as previously described.
(§6) NSG mice bearing the indicated PDX tumors were injected with a microdose of ^14C-labeled carboplatin (FIG. 22A) or ^14C-labeled gemcitabine (FIG. 22B). The microdose of ^14C-labeled carboplatin was 0.375 mg/kg carboplatin, 50,000 dpm/g. The microdose of ^14C-labeled gemcitabine was 0.092 mg/kg gemcitabine, 1000 dpm/g. The doses of each drug administered to the mice were chosen to target 1 μM in plasma concentration of carboplatin and 0.3 μM in plasma concentration of gemcitabine. These plasma concentrations represent 1% of the approximate peak plasma concentration during human chemotherapy. Animals were sacrificed after 24 h and drug-DNA adduct frequency was determined from collected tumor tissue by AMS measurements of ^14C in tumor DNA. Carboplatin DNA-adduct levels correlate with PDX model sensitivity to cisplatin at 24 h after microdosing (FIG. 22A). Gemcitabine DNA-adduct levels correlate with PDX model sensitivity to gemcitabine at 24 h after microdosing (FIG. 22B). […] There is no significant difference in carboplatin-DNA monoadduct levels between the three resistant PDX models. […] We conclude that microdose induced carboplatin-DNA monoadducts predicts sensitivity to cisplatin chemotherapy, and microdose induced gemcitabine incorporation predicts sensitivity to gemcitabine chemotherapy.
(§7) In this example we test whether gemcitabine/carboplatin (G/Carbo) combination therapy has an effect on the formation of drug-DNA adducts in this synergistic tumor model. In FIG. 23A, NGS mice bearing BL0645 xenographs were administered via tail vein injection a therapeutic dose of [^14C]carboplatin alone or a therapeutic dose of [^14C]carboplatin in combination with a therapeutic dose of gemcitabine. Carboplatin-DNA monoadducts were measured in tumor tissue 24 h after dosing. A therapeutic dose of the combination [^14C]carboplatin plus unlabeled gemcitabine leads to a significant increase in carboplatin-DNA monoadduct level (94.84±16.02 versus 209.6±64.66 adducts per 10^8 nucleotides, p=0.032) compared to treatment with carboplatin alone. In FIG. 23B, the same experiment was conducted in which the mice received a therapeutic dose of [^14C]gemcitabine alone or a therapeutic dose of [^14C]gemcitabine in combination with a therapeutic dose of unlabeled carboplatin. […]

In data set [17] the test system is PDX Model BL0645. As to the kind of experiment: drug-DNA adducts in PDX tumor by AMS. It counts as in vivo, NSG mice. Conditions: 24 h.
Text: as §5, §6, §7

Data set [18] relates to PDX Model BL0293. Description: drug-DNA adducts in PDX tumor by AMS. The class given is in vivo, NSG mice. As to conditions: microdose 0.092 mg/kg gemcitabine, 24 h.
Text: as §5
(§8) NSG mice bearing the indicated PDX tumors were injected with a microdose of ^14C-labeled carboplatin (FIG. 22A) or ^14C-labeled gemcitabine (FIG. 22B). The microdose of ^14C-labeled carboplatin was 0.375 mg/kg carboplatin, 50,000 dpm/g. The microdose of ^14C-labeled gemcitabine was 0.092 mg/kg gemcitabine, 1000 dpm/g. The doses of each drug administered to the mice were chosen to target 1 μM in plasma concentration of carboplatin and 0.3 μM in plasma concentration of gemcitabine. These plasma concentrations represent 1% of the approximate peak plasma concentration during human chemotherapy. Animals were sacrificed after 24 h and drug-DNA adduct frequency was determined from collected tumor tissue by AMS measurements of ^14C in tumor DNA. Carboplatin DNA-adduct levels correlate with PDX model sensitivity to cisplatin at 24 h after microdosing (FIG. 22A). Gemcitabine DNA-adduct levels correlate with PDX model sensitivity to gemcitabine at 24 h after microdosing (FIG. 22B). […] There is no significant difference in carboplatin-DNA monoadduct levels between the three resistant PDX models. […]

The subject of data set [19] is PDX Model BL0440. Description: drug-DNA adducts in PDX tumor by AMS. The class given is in vivo, NSG mice. As to conditions: microdose 0.092 mg/kg gemcitabine, 24 h.
Text: as §5, §8

Data set [20] relates to 5637 and 5637R cell lines. Description: gemcitabine incorporation into DNA by AMS. It counts as cell-based, human. Here is the method: The two cell lines were cultured as described above in Example 11. [^14C]Gemcitabine (FIG. 19) was labeled at position 2 (on the aromatic nucleobase) with a specific activity of 58.8 mCi/mmol (purchased from Moravek Biochemical). Unlabeled gemcitabine (USP Pharmaceutical Grade) was mixed with the labeled gemcitabine to achieve the correct specific activity for this experiment. […] This microdose is approximately 0.1% of a therapeutically relevant concentration. Cells were sampled for DNA extraction and AMS analysis of ^14C in DNA over 24 hours.

The conditions of data set [21]: IV dose of 1000 mg/m^2 over 30 minutes; cited from earlier work.

Consider `N.N.[Cl][Pt][Cl]` [cisplatin], for which the IC50 – broadly, the concentration at which inhibition is half-maximal – in [1] amounted to 2.99 µM; in data set [2] it was 18.2 µM; in data set [3], 20 µM; in data set [4], 14.5 µM; in data set [5] it was 3.53 µM; in [6], 4.23 µM. Besides, the IC50 was found to be 8.35 ± 0.01 µM in [11]; 11.7 ± 1.63 µM in data set [12]; 5.28 ± 0.04 µM in [13]; 12.6 ± 1.17 µM in data set [14]; 6.2 ± 0.03 µM in [15]. Besides, the “Xenograph Sensitivity” value was “RES” in data set [7], “RES” in [8], “RES” in [9] and “SEN” in data set [10].

As for `Nc1ccn([C@@H]2O[C@H](CO)[C@@H](O)C2(F)F)c(=O)n1` [gemcitabine], the gemcitabine-DNA adduct levels in [16] (control experiment FIG. 23F, microdose single agent or G/Carbo combination) is given as 2.44±0.492 adducts per 10^8 nucleotides. Further, the gemcitabine adduct levels in data set [16] (microdose 0.092 mg/kg gemcitabine, 24 h (FIG. 22B)) stood at 3.17±0.278; in data set [18], 10.0±5.92; in [19], 13.1±10.2. Further, the gemcitabine adducts in [17] (microdose 0.092 mg/kg gemcitabine alone or with carboplatin 0.375 mg/kg) is recorded as 2.44±0.880 adducts per 10^8 nucleotides. In addition, the gemcitabine adduct level in data set [17] (therapeutic 9.2 mg/kg gemcitabine alone or with carboplatin 37.5 mg/kg) was 169.2±9.129 adducts per 10^8 nucleotides. The “gemcitabine incorporation in 5637R compared to parental 5637 cells” value in data set [20] (0.03 μM 4 hours, at 24 hours) was “much lower gemcitabine incorporation”. Besides, the “cytotoxicity of subtherapeutic dose” value in data set [20] (0.03 μM for 4 hours) is listed as “no cytotoxicity”. The “Xenograph Sensitivity” value in data set [7] is listed as “SEN”; in data set [8] it was “RES”; in data set [9], “RES”; in data set [10] it was “SEN”. The plasma concentration result in [21] was “about 30 μM”. Moreover, the plasma half-life entry in data set [21] was “about 60 minutes”.
